Values of other authors in article PMC7884382, “A Phase 1 study of RO6870810, a novel bromodomain and extra-terminal protein inhibitor, in patients with NUT carcinoma, other solid tumours, or diffuse large B-cell lymphoma” (British Journal of Cancer, 2020).

Legend:
NC = details: cited from earlier work
serotonin receptors = tested on: serotonin receptors; parameters: method as in PMID 20871596; details: cited from earlier work
DLBCL = tested on: DLBCL; parameters: method as in PMID 27063978; details: cited from earlier work
[1] = cited from earlier work

Structure (SMILES): Cc1nnn(C)c1-c1cnc2c3ccc(C(C)(C)O)cc3n([C@H](c3ccccc3)C3CCOCC3)c2c1 [BMS-986158]
- Response in a patient with NC harbouring BRD3-NUT fusion (NC): minor but sustained regression

Structure (SMILES): Cc1sc2c(c1C)C(c1ccc(Cl)cc1)=N[C@@H](CC(=O)OC(C)(C)C)c1nnc(C)n1-2 [JQ1]
- Interaction with serotonin receptors (serotonin receptors): interaction with serotonin receptors

Structure (SMILES): Cc1sc2c(c1C)C(c1ccc(Cl)cc1)=N[C@@H](CC(=O)Nc1ccc(O)cc1)c1nnc(C)n1-2 [birabresib]
- CRs (DLBCL; among 22 patients with DLBCL): 2
- PR (DLBCL; among 22 patients with DLBCL): 1
- Responders among patients with MYC-expressing DLBCL (DLBCL): one of five
- half-life [1]: 4 to 5 h

Structure (SMILES): CCNC(=O)C[C@@H]1N=C(c2ccc(Cl)cc2)c2cc(OC)ccc2-n2c(C)nnc21 [molibresib]
- Responses by NUT fusion among patients with NC (NC): PRs (confirmed and unconfirmed) were mostly observed in tumours with BRD3-NUT fusions
